“Also recorded” adds a separate entry of the source.
Experiments:
Assay type in all cases: in vivo
C57BL/6 mice [1] = assay: Renal IRI in WT mice: 4-HNE immunohistochemistry (oxidative stress); conditions: hepcidin-treated vs untreated IRI mice, FIG. 4a
Description: (§1) All experiments were performed in accordance with the National Institutes of Health and Institutional Animal Care and Use Guidelines. The Animal Care and Use Committee of the University of Virginia approved all procedures and protocols. C57BL/6 mice from the Jackson Laboratory and hepcidin knockout mice (HAMP−/−), a kind gift from Dr Cindy Roy (John Hopkins University) were used in this study. All experiments were performed on 8-10 weeks old male mice. Kidney ischemia-reperfusion surgery was performed as previously reported (44). The core temperature of the mice was maintained between 34° C. and 36° C. using a heating pad. After anesthetizing the mice (ketamine, 12 mg/ml; atropine, 0.48 mg/ml; xylazine, 24 mg/ml; […] mixture administered per 20 g body weight), bilateral flank incisions were made, both renal pedicles were exposed, and cross-clamped for 26 minutes (severe I/R injury) or 24 minutes (mild I/R injury). After the determined ischemia, clamps were removed, and kidneys were allowed to reperfuse for 24 hours. Ambient postoperative air temperature was maintained between 30° C. and 32° C. until mice had fully recovered. […]
Kidney sections were embedded in paraffin, 3 μm sectioned, and stained for 4 Hydroxynonenal (4-HNE) using standard protocols. […] Sections were washed 3 times in NaPO4 buffer, and then incubated in ABC ready-to-use reagent (Vector Labs) for 30 minutes. […]

[2] = system: hepcidin knockout mice (HAMP−/−); assay: Mild renal IRI in HAMP-/- mice: serum iron and tissue non-heme iron; conditions: for serum iron / liver non-heme iron content: HAMP-/- hepcidin-IRI vs untreated IRI p<0.005, vs sham p<0.0005; for serum iron: FIG. 6e; for liver non-heme iron content: FIG. 6f
Description: (§2) All experiments were performed in accordance with the National Institutes of Health and Institutional Animal Care and Use Guidelines. The Animal Care and Use Committee of the University of Virginia approved all procedures and protocols. C57BL/6 mice from the Jackson Laboratory and hepcidin knockout mice (HAMP−/−), a kind gift from Dr Cindy Roy (John Hopkins University) were used in this study. All experiments were performed on 8-10 weeks old male mice. Kidney ischemia-reperfusion surgery was performed as previously reported (44). The core temperature of the mice was maintained between 34° C. and 36° C. using a heating pad. After anesthetizing the mice (ketamine, 12 mg/ml; atropine, 0.48 mg/ml; xylazine, 24 mg/ml; […] mixture administered per 20 g body weight), bilateral flank incisions were made, both renal pedicles were exposed, and cross-clamped for 26 minutes (severe I/R injury) or 24 minutes (mild I/R injury). After the determined ischemia, clamps were removed, and kidneys were allowed to reperfuse for 24 hours. Ambient postoperative air temperature was maintained between 30° C. and 32° C. until mice had fully recovered. Sham-operated animals underwent bilateral flank incisions without clamping of renal pedicles. Twenty-four hours later, mice were euthanized, and tissues were harvested.
(§3) Serum iron (Abcam), hepcidin (Intrinsic Lifescience) and IL-6 levels (eBioscience) were measured using commercial ELISA kits, as per manufacturers instructions.
Non-heme iron content in tissue was measured using the method described in published literature with slight modifications (60). Briefly, tissues were accurately weighed, finely cut and placed for 20 hours at 65° C. in a solution of 3M HCl/0.61 M trichloroacetic acid. After cooling to room temperature, the acid extract was spun at 12,000 rpm to collect the supernatant. 0.1 mL of the supernatant was incubated with chromogen solution (1.86 mM bathophenanthroline sulfonate/143 mM thioglycollic acid) for 20 minutes, and OD was measured at 535 nm. A standard curve was generated using an iron standard solution (Ricca Iron AA standard) against water as the blank. Non-heme iron content (μg/g) was calculated using the equation described (60).
We measured the serum iron and non-heme iron content in the kidney, spleen and liver of sham, untreated and hepcidin injected HAMP^−/− mice after IRI.

[3] = system: hepcidin knockout mice (HAMP−/−); assay: Mild renal IRI in HAMP-/- mice: 4-HNE staining and immunofluorescence of neutrophils and CD11b cells; conditions: for kidney 4-HNE immunoreactivity: hepcidin reconstituted HAMP-/- IRI, FIG. 8c; for kidney neutrophil and CD11b cell infiltration: hepcidin reconstitution in HAMP-/- IRI mice, FIGS. 8e and g
Description: as §2
Kidney sections were embedded in paraffin, 3 μm sectioned, and stained for 4 Hydroxynonenal (4-HNE) using standard protocols. Briefly sections were deparaffanized in xylenes, rehydrated in a series of ethanol rinses from 100% to 70% ethanol, then washed in distilled water. Sections were then incubated in 3% H2O2 in methanol for 20 minutes. After treating with Avidin and Biotin for 15 minutes each (Vector) the sections were blocked in blocking buffer containing 10% donkey serum in sodium phosphate buffer (NaPO4 buffer), at room temperature for 30 minutes. 4-HNE antibody was diluted in 1% BSA in NaPO4 buffer (Abcam; 1:1000) and added to sections overnight at 4° C. Sections were washed 3 times with NaPO4 buffer for 5 minutes each and incubated with biotinylated donkey anti-goat secondary antibody (Vector) for 1 hour. Sections were washed 3 times in NaPO4 buffer, and then incubated in ABC ready-to-use reagent (Vector Labs) for 30 minutes. After another 3 washes with NaPO4 buffer the sections exposed to diaminobenzidine (DAB) for 5 minutes followed by washing with in distilled water. The sections were counter-stained with 1% methylene blue solution, washed in water and dehydrated with xylene. Sections were imaged by using a Zeiss Axio Imager Z2/Apotome Microscope fitted with motorized focus drives and motorized XYZ microscope stage and integrated to a workstation running StereoInvestigator software, version 10.51 (MBF Bioscience, Williston, Vt.) […]

C57BL/6 mice [4] = assay: Renal IRI in WT mice: IL-6 levels by ELISA
Description: as §1, with “recovered. Sham-operated animals underwent bilateral flank incisions without clamping of renal pedicles.” for “recovered.”
as §3

[5] = Proteinuria (data not shown)

Q: For “Mouse hepcidin 25 (DTNFPICIFCCKCCNNSQCGICCKT; listed as Mus musculus)”, which “kidney 4-HNE immunoreactivity (oxidative stress)” value (C57BL/6 mice [1]) is on record?
A: reduced the reactivity to 4 HNE; also recorded: markedly reduced

Q: And the “kidney 4-HNE immunoreactivity (oxidative stress)” value (C57BL/6 mice [1]; listed as hepcidin)?
A: far less 4-HNE immunoreactivity

Q: And the serum iron [2]?
A: significantly reduced serum iron

Q: And the serum iron ([2]; listed as hepcidin)?
A: significantly lowered serum iron

Q: What about the “liver non-heme iron content” value [2] of the same substance?
A: significantly higher non-heme iron

Q: What about the “liver non-heme iron content” value ([2]; listed as hepcidin) of the same substance?
A: significantly higher than the untreated

Q: What about the “splenic iron content by Prussian blue staining” value ([2]; hepcidin-treated HAMP-/- mice) of the same substance?
A: qualitative increases in splenic iron content

Q: And the “non-heme iron content of the spleen and kidneys” value ([2]; sham, untreated and hepcidin injected HAMP-/- mice after IRI (data not shown))?
A: could not detect quantitative differences

Q: And the “kidney 4-HNE immunoreactivity” value [3]?
A: little reactivity to 4 HNE

Q: What about the “kidney 4-HNE immunoreactivity” value ([3]; listed as hepcidin) of the same substance?
A: far less immunoreactivity to 4-HNE

Q: And the “kidney neutrophil and CD11b cell infiltration” value [3]?
A: dramatically reduced

Q: What about the “kidney neutrophil and CD11b cell infiltration” value ([3]; listed as hepcidin) of the same substance?
A: almost completely prevented kidney injury-associated neutrophil or CD11b cell infiltration

Q: And the “serum IL-6 levels” value (C57BL/6 mice [4]; WT-IRI Vs WT Hepcidin-IRI, p<0.007, FIG. 10a)?
A: prevented IRI-induced increase in IL-6 levels; also recorded: prevented by Hepcidin

Q: And the “splenic, renal, and systemic IL-6 levels” value (C57BL/6 mice [4]; hepcidin treatment, renal IRI (discussion))?
A: significantly prevented IRI-induced increase in splenic, renal, and systemic IL-6 levels

Q: And the proteinuria [5]?
A: reducing proteinuria
